Assay [1] concerns Pseudomonas aeruginosa (PA) biofilm. Kind of assay: Modified Kuhns Biofilm Eradication Model (silicone discs), PA. The note with it: for viable colonies recovered from the biofilm eradication procedure: PA, 2 hrs. In kind it is cell-based.
Assay [2] deals with Staphylococcus aureus, Pseudomonas aeruginosa and Candida albicans biofilms. Conditions: in the presence of ethanol and citrate.
Assay [3] deals with Methicilin resistant Staphyloccus aureus (MRSA) biofilm. Nature of the assay: Modified Kuhns Biofilm Eradication Model (silicone discs), MRSA. Format: cell-based. The note with it: for GTN concentration required to eradicate MRSA: 7% citrate; for viable colonies recovered from the biofilm eradication procedure: MRSA, 2 hrs.
Assay [4] concerns Candida albicans (CA) biofilm. Nature of the assay: Modified Kuhns Biofilm Eradication Model (silicone discs), CA. Format: cell-based. Conditions: for viable colonies recovered from the biofilm eradication procedure: CA, 2 hrs.
Where [5] appears, read: 10% ethanol and 7% citrate, FIG. 5.

The structures appear in SMILES notation. Where two headings read alike, the source gives them in different places.

The values below come from patent US9913820B2, “Antimicrobial compositions comprising glyceryl nitrates” (Board of Regents, The University of Texas System, priority 2012, dated 2018).

For `O=[N+]([O-])OCC(CO[N+](=O)[O-])O[N+](=O)[O-]` [GTN, glyceryl trinitrate], the “eradication of mature biofilm within 2 hours (in words)” value in assay [1] and in assay [4] was “neither 1 mg/ml GTN nor 7% citrate alone were able to eradicate” throughout. For the same compound, in assay [1] (setting [5]), the “GTN concentration that eradicated P.aeruginosa” value came to 0.2 mg/mL. Moreover, the “viable colonies recovered from the biofilm eradication procedure” value (from here on “viable colonies recovered”) in assay [1] (component alone at 1 mg/ml) was determined as 2.05E+03 cfu/ml; in assay [3] (component alone at 1 mg/ml), 5.00E+03 cfu/ml; in assay [4] (component alone at 1 mg/ml), 5.00E+03 cfu/ml. Also, the “GTN concentration to fully eradicate mature biofilms within 2 hours” value in assay [2] turned out to be 100 microgram/ml. Further, the “reduction of GTN concentration versus what would be needed by itself” value in assay [2] (full eradication within 2 hours) stood at 10 fold. In assay [3] (setting [5]), the “GTN concentration that fully eradicated MRSA” value came out at 0.5 mg/mL. For the same compound, the “GTN concentration required to eradicate MRSA” value in assay [3] (15% ethanol, FIG. 6) turned out to be 0.2 mg/mL; in assay [3] (20% ethanol, FIG. 7) it was 0.1 mg/mL. Also, in assay [4] (setting [5]), the “GTN concentration that eradicated C. albicans” value was 0.2 mg/mL.

For `CCN(CC)C(=S)SSC(=S)N(CC)CC` [Disulfiram], the “viable colonies recovered” value in assay [1] (component alone at 0.2 mg/ml) was found to be 5.00E+05 cfu/ml; in assay [3] (component alone at 0.2 mg/ml) it was 2.00E+04 cfu/ml; in assay [4] (component alone at 0.2 mg/ml), 0.00E+00 cfu/ml.

Regarding `O=S(=O)(O)CCS` [MesNA], the “viable colonies recovered” value in assay [1] (component alone at 5%), in assay [3] (component alone at 5%) and in assay [4] (component alone at 5%) was 5.00E+05 cfu/ml each time.

For `O=C(O)CC(O)(CC(=O)O)C(=O)O` [Citrate], the entries for the “viable colonies recovered” value in assay [1] (component alone at 7%), in assay [3] (component alone at 7%) and in assay [4] (component alone at 7%) were 2.24E+04 cfu/ml, 2.92E+04 cfu/ml and 2.16E+04 cfu/ml, respectively. Further, the “eradication of mature biofilm within 2 hours (in words)” value in assay [1] (Pseudomonas Aeruginosa, 7% alone) was “neither 1 mg/ml GTN nor 7% citrate alone were able to eradicate”; in assay [4] (Candida Albicans, 7% alone), “neither 1 mg/ml GTN nor 7% citrate alone were able to eradicate”.
